Laboratory results taken from US5830994A, “Peptide derivatives of alpha-MSH and their application” (Institut Europeen De Biologie Cellulaire, priority 1993, dated 1998).

Key:
[1] = system: DNFB contact hypersensitivity; experiment: Dinitrofluorobenzene (DNFB) contact hypersensitivity test, ear thickening after topical application; assay type: in vivo, C57 BL/6JICO mice; settings: Example 13
Description: Study of the Anti-allergic activity of the Peptide compounds, by the Dinitrofluorobenzene (DNFB) contact Hypersensitivity test.
Female C57 BL/6JICO mice 5 weeks old are separated into ten batches of ten animals (five per cage), with free access to water and food, subjected to a photoperiod of twelve hours of light per twenty-four hours.
The animals in batches 1 to 6 receive daily and per topical application on the shaved skin of the back, the products to be studied, dissolved in propylene glycol, in a constant volume of 50 μl and for five consecutive days.
PIII--Batches 1 - 2 - 3--2.5 μg --0.5 μg--0.1 μg--mouse/day
PIV--Batches 4 - 5 - 6 - 2.5μg--0.5 μg--0.1 μg--mouse/day
The animals of the X batch serve as controls (and receive only, 50 μl of propylene glycol per topical application for five days).
On the fifth day, thirty minutes after the last application, all the mice are sensitized with 25 μl of DNFB (2.4-Dinitro-1-FluoroBenzene (FLUKA CHEMIKA PURUM at 97% batch No. 33820890) at 2% in a 4 to 1 mixture of acetone (SDS ref. 0510) and triolein (FLUKA) applied topically over the dorsal region of shaved skin.
On the sixth day, a new sensitization is carried out by application of DNFB.
On the eleventh day, the thickness of the ears of the mice is measured with the aid of a micrometer (ROCH 0 to 25 mm in 1/100 mm) in order to obtain base values, then the ears are stimulated by topical application of 20 μl of DNFB at 0.8%.
On the twelfth day, the thickness of the ears is again measured. The mean value of thickening of the ears is established for the mice in the batches which had received the products to be studied, as well as for the mice in the control batch.
The percentage of suppression where appropriate will be expressed by the following calculation: [formula]
Comparative study of the activity of Lipoyl-Peptides and of their peptide structures on DNFB contact hypersensitivity.
The method used is that described above in Example 10.
Contact hypersensitivity induced in mice by Dinitrofluorobenzene--"DNBF"
Batch I: (DL) - Lip - Glu - His - D.homoPhe - Arg - Trp - Gly - NH2
Batch II: H - Glu - His - D.homoPhe - Arg - Trp - Gly - NH2
Batch III: Control=(DL) - Lipoic Acid
Solvent: propylene Glycol previously used as control in Example 10.
Control: dose used"DL-Lipoic-Acid"=10 ng per mouse and per day.
On the fifth day, thirty minutes after the last application, all the mice were sensitized with 25 μl of DNFB (2.4-Dinitro-1-FluoroBenzene (FLUKA CHEMIKA PURUM at 97% batch No. 33820890) at 2% in a 4 to 1 mixture of acetone (SDS ref. 05510) and triolein (FLUKA) applied topically over the dorsal region of shaved skin.
On the twelfth day, the thickness of the ears is again measured. The mean value of thickening of the ears is established for the mice in the batches which had received the products to be studied, as well as for the mice in the control batch. The percentage of suppression where appropriate will be expressed by the following calculation: [formula]

cultured embryonic cells = experiment: Effects of Peptides PI and PIV on cultured embryonic cells in vitro (melanocytes, neurons, muscular cells, fibroblasts); assay type: cell-based
Protocol: Effects of Peptides PI and PIV on cultured embryonic cells in vitro . . . "Melanocytes - Neurons - Muscular Cells and Fibroblasts . . . " dose used 1 μg/ml (defined by dose/response trials)
1 single treatment during the innoculation of the cells or several successive treatments (renewal of the medium every 48 hours) duration of culture: 6 to 8 days
1) Counting of the melanocytes
2) Assay of melanin by HPLC and/or by spectrophotometry
Daily observation of the cultures
Ultrastructure by transmission electron microscopy.

## O=C(O)CCCCC1CCSS1 (stereo not drawn) [Lipoic acid, (DL) - Lipoic Acid, reference compound]
[1]; 10 ng per mouse and per day, in solution in Propylene Glycol
  suppressive effect of cutaneous hypersensitivity (in words): No suppressive effect

## [(DL) Lip] Glu - His - D.homoPhe - Arg - Trp - Gly - NH2 [PI]
[1]; 1 ng/mouse/day
  % SUPPRESSION RELATIVE TO THE CONTROL BATCH, Left Ear: -75.40%
  % SUPPRESSION RELATIVE TO THE CONTROL BATCH, Right Ear: -75.58%
  LEFT EAR MEAN % INCREASE: 13.86%
  RIGHT EAR MEAN % INCREASE: 13.86%
[1]; 10 ng/mouse/day
  % SUPPRESSION RELATIVE TO THE CONTROL BATCH, Left Ear: -77.01%
  % SUPPRESSION RELATIVE TO THE CONTROL BATCH, Right Ear: -76.90%
  LEFT EAR MEAN % INCREASE: 12.95%
  RIGHT EAR MEAN % INCREASE: 13.01%
[1]; 100 ng/mouse/day
  % SUPPRESSION RELATIVE TO THE CONTROL BATCH, Left Ear: -79.30%
  % SUPPRESSION RELATIVE TO THE CONTROL BATCH, Right Ear: -79.45%
  LEFT EAR MEAN % INCREASE: 11.66%
  RIGHT EAR MEAN % INCREASE: 11.66%
  suppression of cutaneous hypersensitivity: 79%
Cultured embryonic cells; 1 μg/ml
  effect on precursor embryonic cells not yet determined in the melanoblastic pathway (in words): no effect
  effect on the melanoblasts already induced (in words): stimulating effect
  number of melanocytes increases by a factor: ≥ 2
  toxic effect on astroglial cells (in words): No toxic effect
  toxic effect on fibroblasts, mesenchyme (in words): no toxic effect
Cultured embryonic cells; 1 μg/ml, after eight days of culture
  quantity of biosynthesized melanin per cell: 1.4 ng/cell
Cultured embryonic cells; 1 μg/ml, even at an ultrastructural level
  toxic effect on myoblasts (in words): no toxic effect
Cultured embryonic cells; qualitative and quantitative
  effect on melanogenesis, summary (in words): stimulate melanogenesis
Cultured embryonic cells; summary
  cytotoxic effect on the various cell categories (in words): no cytotoxic effect
  stimulating effect on the other cell types: neurons, astrocytes, muscle cells, fibroblasts (in words): without stimulating effect
